Data as given in patent US20250230193A1, “CYCLIC COMPOUND HAVING SELECTIVE KRAS INHIBITORY EFFECT ON HRAS AND NRAS” (CHUGAI SEIYAKU KABUSHIKI KAISHA, priority 2022, published 2025).

Assays:
[1] = molecular target: GDP-bound NRAS wild-type protein (Homo sapiens, UniProt P01111); assay: Binding to NRAS by surface plasmon resonance (SPR), Single Cycle Kinetics; conditions: KD ratio, GDP-bound NRAS wild-type vs GDP-bound KRAS wild-type, SPR
[2] = molecular target: GDP-bound HRAS wild-type protein (Homo sapiens, UniProt P01112); assay: Binding to HRAS by surface plasmon resonance (SPR), Single Cycle Kinetics; conditions: KD ratio, GDP-bound HRAS wild-type vs GDP-bound KRAS wild-type, SPR
GDP-bound HRAS wild-type protein, sequence (P01112 whole entry): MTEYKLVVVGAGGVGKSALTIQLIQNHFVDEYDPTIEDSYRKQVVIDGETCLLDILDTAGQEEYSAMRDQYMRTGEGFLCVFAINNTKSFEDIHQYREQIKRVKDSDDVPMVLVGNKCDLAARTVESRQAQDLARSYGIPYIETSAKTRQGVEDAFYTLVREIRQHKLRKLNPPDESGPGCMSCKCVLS

GDP-bound NRAS wild-type protein, sequence (P01111 whole entry): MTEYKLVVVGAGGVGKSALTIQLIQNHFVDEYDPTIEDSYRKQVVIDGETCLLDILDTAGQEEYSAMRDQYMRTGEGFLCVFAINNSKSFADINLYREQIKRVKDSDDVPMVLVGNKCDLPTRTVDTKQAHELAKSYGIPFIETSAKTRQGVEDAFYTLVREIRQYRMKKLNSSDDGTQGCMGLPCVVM

SMILES: CCCOC[C@H]1C(=O)N[C@@H]([C@@H](C)CC)C(=O)N(C)CC(=O)N(C)[C@H]2C/C=C\CCN(C2=O)[C@@H](Cc2ccc(C(F)(F)F)cc2)C(=O)N(C)CC(=O)N[C@@H](CCc2cc(F)c(C(F)(F)F)c(F)c2)C(=O)N2C[C@H](F)C[C@H]2C(=O)NC2(CC(C)(C)C2)C(=O)N(C)[C@@H](C2CCCC2)C(=O)N(C)[C@H](C(=O)N(C)CC)CC(=O)N1C [PP1697]
- NRAS/KRAS (ratio of KD value for NRAS to KD value for KRAS) [1]: A (a compound having 10 or more and less than 20 is denoted as A)
- HRAS/KRAS (ratio of KD value for HRAS to KD value for KRAS) [2]: A (a compound having 10 or more and less than 20 is denoted as A)

SMILES: CCCOC[C@H]1C(=O)N[C@@H]([C@@H](C)CC)C(=O)N(C)CC(=O)N(C)[C@H]2C/C=C\CCN(C2=O)[C@@H](Cc2ccc(C(F)(F)F)cc2)C(=O)N(C)CC(=O)N[C@@H](CCc2cc(F)c(C(F)(F)F)c(F)c2)C(=O)N2C[C@H](F)C[C@H]2C(=O)NC2(CC(C)(C)C2)C(=O)N(C)[C@@H](C2CCCC2)C(=O)N(C)[C@H](C(=O)N(C)CCC)CC(=O)N1C [PP1698]
- NRAS/KRAS (ratio of KD value for NRAS to KD value for KRAS) [1]: A (a compound having 10 or more and less than 20 is denoted as A)
- HRAS/KRAS (ratio of KD value for HRAS to KD value for KRAS) [2]: A (a compound having 10 or more and less than 20 is denoted as A)

SMILES: CCCN(C)C(=O)[C@@H]1CC(=O)N(C)[C@@H](CC)C(=O)N[C@@H]([C@@H](C)CC)C(=O)N(C)CC(=O)N(C)[C@H]2C/C=C\CCN(C2=O)[C@@H](Cc2ccc(C(F)(F)F)cc2)C(=O)N(C)CC(=O)N[C@@H](CCc2cc(F)c(C(F)(F)F)c(F)c2)C(=O)N2C[C@H](OCC)C[C@H]2C(=O)NC2(CCC2)C(=O)N(C)[C@@H](C2CCCC2)C(=O)N1C [PP1699]
- NRAS/KRAS (ratio of KD value for NRAS to KD value for KRAS) [1]: A (a compound having 10 or more and less than 20 is denoted as A)
- HRAS/KRAS (ratio of KD value for HRAS to KD value for KRAS) [2]: A (a compound having 10 or more and less than 20 is denoted as A)

SMILES: CCCN(C)C(=O)[C@@H]1CC(=O)N(C)[C@@H](CC(F)F)C(=O)N[C@@H]([C@@H](C)CC)C(=O)N(C)CC(=O)N(C)[C@H]2C/C=C\CCN(C2=O)[C@@H](Cc2ccc(C(F)(F)F)cc2)C(=O)N(C)CC(=O)N[C@@H](CCc2cc(F)c(C(F)(F)F)c(F)c2)C(=O)N2C[C@H](OCC)C[C@H]2C(=O)NC2(CCC2)C(=O)N(C)[C@@H](C2CCCC2)C(=O)N1C [PP1700]
- NRAS/KRAS (ratio of KD value for NRAS to KD value for KRAS) [1]: A (a compound having 10 or more and less than 20 is denoted as A)
- HRAS/KRAS (ratio of KD value for HRAS to KD value for KRAS) [2]: A (a compound having 10 or more and less than 20 is denoted as A)

SMILES: CCO[C@@H]1C[C@H]2C(=O)NC3(CCC3)C(=O)N(C)[C@@H](C3CCCC3)C(=O)N(C)[C@H](C(=O)N(C)CC)CC(=O)N(C)[C@@H](CC(F)(F)F)C(=O)N[C@@H]([C@@H](C)CC)C(=O)N(C)CC(=O)N(C)[C@H]3C/C=C\CCN(C3=O)[C@@H](Cc3ccc(C(F)(F)F)cc3)C(=O)N(C)CC(=O)N[C@@H](CCc3cc(F)c(C(F)(F)F)c(F)c3)C(=O)N2C1 [PP1701]
- NRAS/KRAS (ratio of KD value for NRAS to KD value for KRAS) [1]: A (a compound having 10 or more and less than 20 is denoted as A)
- HRAS/KRAS (ratio of KD value for HRAS to KD value for KRAS) [2]: A (a compound having 10 or more and less than 20 is denoted as A)

SMILES: CCCN(C)C(=O)[C@@H]1CC(=O)N(C)[C@@H](CC(F)(F)F)C(=O)N[C@@H]([C@@H](C)CC)C(=O)N(C)CC(=O)N(C)[C@H]2C/C=C\CCN(C2=O)[C@@H](Cc2ccc(C(F)(F)F)cc2)C(=O)N(C)CC(=O)N[C@@H](CCc2cc(F)c(C(F)(F)F)c(F)c2)C(=O)N2C[C@H](OCC)C[C@H]2C(=O)NC2(CCC2)C(=O)N(C)[C@@H](C2CCCC2)C(=O)N1C [PP1702]
- NRAS/KRAS (ratio of KD value for NRAS to KD value for KRAS) [1]: A (a compound having 10 or more and less than 20 is denoted as A)
- HRAS/KRAS (ratio of KD value for HRAS to KD value for KRAS) [2]: A (a compound having 10 or more and less than 20 is denoted as A)

SMILES: C#CC[C@H]1C(=O)N[C@@H]([C@@H](C)CC)C(=O)N(C)CC(=O)N(C)[C@H]2C/C=C\CCN(C2=O)[C@@H](Cc2ccc(C(F)(F)F)cc2)C(=O)N(C)CC(=O)N[C@@H](CCc2cc(F)c(C(F)(F)F)c(F)c2)C(=O)N2C[C@H](OCC)C[C@H]2C(=O)NC2(CCC2)C(=O)N(C)[C@@H](C2CCCC2)C(=O)N(C)[C@H](C(=O)N(C)CCC)CC(=O)N1C [PP1703]
- NRAS/KRAS (ratio of KD value for NRAS to KD value for KRAS) [1]: A (a compound having 10 or more and less than 20 is denoted as A)
- HRAS/KRAS (ratio of KD value for HRAS to KD value for KRAS) [2]: A (a compound having 10 or more and less than 20 is denoted as A)

SMILES: CCCC[C@H]1C(=O)N[C@@H]([C@@H](C)CC)C(=O)N(C)CC(=O)N(C)[C@H]2C/C=C\CCN(C2=O)[C@@H](Cc2ccc(C(F)(F)F)cc2)C(=O)N(C)CC(=O)N[C@@H](CCc2cc(F)c(C(F)(F)F)c(F)c2)C(=O)N2C[C@H](OCC)C[C@H]2C(=O)NC2(CCC2)C(=O)N(C)[C@@H](C2CCCC2)C(=O)N(C)[C@H](C(=O)N(C)CCC)CC(=O)N1C [PP1704]
- NRAS/KRAS (ratio of KD value for NRAS to KD value for KRAS) [1]: A (a compound having 10 or more and less than 20 is denoted as A)
- HRAS/KRAS (ratio of KD value for HRAS to KD value for KRAS) [2]: A (a compound having 10 or more and less than 20 is denoted as A)

SMILES: CCCN(C)C(=O)[C@@H]1CC(=O)N(C)[C@@H](CC2CCC2)C(=O)N[C@@H]([C@@H](C)CC)C(=O)N(C)CC(=O)N(C)[C@H]2C/C=C\CCN(C2=O)[C@@H](Cc2ccc(C(F)(F)F)cc2)C(=O)N(C)CC(=O)N[C@@H](CCc2cc(F)c(C(F)(F)F)c(F)c2)C(=O)N2C[C@H](OCC)C[C@H]2C(=O)NC2(CCC2)C(=O)N(C)[C@@H](C2CCCC2)C(=O)N1C [PP1705]
- NRAS/KRAS (ratio of KD value for NRAS to KD value for KRAS) [1]: AA (a compound having 20 or more is denoted as AA)
- HRAS/KRAS (ratio of KD value for HRAS to KD value for KRAS) [2]: A (a compound having 10 or more and less than 20 is denoted as A)

SMILES: CC[C@H](C)[C@@H]1NC(=O)[C@H](C)N(C)C(=O)C[C@@H](C(=O)N(C)C)N(C)C(=O)[C@H](C2CCCC2)N(C)C(=O)C2(CC(C)(C)C2)NC(=O)[C@@H]2CC(F)(F)CN2C(=O)[C@H](CCc2cc(F)c(C(F)(F)F)c(F)c2)NC(=O)CN(C)C(=O)[C@H](Cc2ccc(C(F)(F)F)cc2)N2CC/C=C\C[C@@H](C2=O)N(C)C(=O)CN(C)C1=O [PP1707]
- NRAS/KRAS (ratio of KD value for NRAS to KD value for KRAS) [1]: AA (a compound having 20 or more is denoted as AA)
- HRAS/KRAS (ratio of KD value for HRAS to KD value for KRAS) [2]: A (a compound having 10 or more and less than 20 is denoted as A)

SMILES: CC[C@H](C)[C@@H]1NC(=O)[C@H](CC(F)F)N(C)C(=O)C[C@@H](C(=O)N(C)C)N(C)C(=O)[C@H](C2CCCC2)N(C)C(=O)C2(CC(C)(C)C2)NC(=O)[C@@H]2CC(F)(F)CN2C(=O)[C@H](CCc2cc(F)c(C(F)(F)F)c(F)c2)NC(=O)CN(C)C(=O)[C@H](Cc2ccc(C(F)(F)F)cc2)N2CC/C=C\C[C@@H](C2=O)N(C)C(=O)CN(C)C1=O [PP1709]
- NRAS/KRAS (ratio of KD value for NRAS to KD value for KRAS) [1]: A (a compound having 10 or more and less than 20 is denoted as A)
- HRAS/KRAS (ratio of KD value for HRAS to KD value for KRAS) [2]: A (a compound having 10 or more and less than 20 is denoted as A)

SMILES: CC[C@H](C)[C@@H]1NC(=O)[C@H](CC(F)(F)F)N(C)C(=O)C[C@@H](C(=O)N(C)C)N(C)C(=O)[C@H](C2CCCC2)N(C)C(=O)C2(CC(C)(C)C2)NC(=O)[C@@H]2CC(F)(F)CN2C(=O)[C@H](CCc2cc(F)c(C(F)(F)F)c(F)c2)NC(=O)CN(C)C(=O)[C@H](Cc2ccc(C(F)(F)F)cc2)N2CC/C=C\C[C@@H](C2=O)N(C)C(=O)CN(C)C1=O [PP1710]
- NRAS/KRAS (ratio of KD value for NRAS to KD value for KRAS) [1]: A (a compound having 10 or more and less than 20 is denoted as A)
- HRAS/KRAS (ratio of KD value for HRAS to KD value for KRAS) [2]: B (a compound having 3 or more and less than 10 is denoted as B)

SMILES: CCC[C@H]1C(=O)N[C@@H]([C@@H](C)CC)C(=O)N(C)CC(=O)N(C)[C@H]2C/C=C\CCN(C2=O)[C@@H](Cc2ccc(C(F)(F)F)cc2)C(=O)N(C)CC(=O)N[C@@H](CCc2cc(F)c(C(F)(F)F)c(F)c2)C(=O)N2CC(F)(F)C[C@H]2C(=O)NC2(CC(C)(C)C2)C(=O)N(C)[C@@H](C2CCCC2)C(=O)N(C)[C@H](C(=O)N(C)C)CC(=O)N1C [PP1711]
- NRAS/KRAS (ratio of KD value for NRAS to KD value for KRAS) [1]: A (a compound having 10 or more and less than 20 is denoted as A)
- HRAS/KRAS (ratio of KD value for HRAS to KD value for KRAS) [2]: B (a compound having 3 or more and less than 10 is denoted as B)

SMILES: CC[C@H](C)[C@@H]1NC(=O)[C@H](CC2CC2)N(C)C(=O)C[C@@H](C(=O)N(C)C)N(C)C(=O)[C@H](C2CCCC2)N(C)C(=O)C2(CC(C)(C)C2)NC(=O)[C@@H]2CC(F)(F)CN2C(=O)[C@H](CCc2cc(F)c(C(F)(F)F)c(F)c2)NC(=O)CN(C)C(=O)[C@H](Cc2ccc(C(F)(F)F)cc2)N2CC/C=C\C[C@@H](C2=O)N(C)C(=O)CN(C)C1=O [PP1713]
- NRAS/KRAS (ratio of KD value for NRAS to KD value for KRAS) [1]: A (a compound having 10 or more and less than 20 is denoted as A)
- HRAS/KRAS (ratio of KD value for HRAS to KD value for KRAS) [2]: A (a compound having 10 or more and less than 20 is denoted as A)

SMILES: CCCC[C@H]1C(=O)N[C@@H]([C@@H](C)CC)C(=O)N(C)CC(=O)N(C)[C@H]2C/C=C\CCN(C2=O)[C@@H](Cc2ccc(C(F)(F)F)cc2)C(=O)N(C)CC(=O)N[C@@H](CCc2cc(F)c(C(F)(F)F)c(F)c2)C(=O)N2CC(F)(F)C[C@H]2C(=O)NC2(CC(C)(C)C2)C(=O)N(C)[C@@H](C2CCCC2)C(=O)N(C)[C@H](C(=O)N(C)C)CC(=O)N1C [PP1714]
- NRAS/KRAS (ratio of KD value for NRAS to KD value for KRAS) [1]: A (a compound having 10 or more and less than 20 is denoted as A)
- HRAS/KRAS (ratio of KD value for HRAS to KD value for KRAS) [2]: A (a compound having 10 or more and less than 20 is denoted as A)

SMILES: CC[C@H](C)[C@@H]1NC(=O)[C@H](CC(C)C)N(C)C(=O)C[C@@H](C(=O)N(C)C)N(C)C(=O)[C@H](C2CCCC2)N(C)C(=O)C2(CC(C)(C)C2)NC(=O)[C@@H]2CC(F)(F)CN2C(=O)[C@H](CCc2cc(F)c(C(F)(F)F)c(F)c2)NC(=O)CN(C)C(=O)[C@H](Cc2ccc(C(F)(F)F)cc2)N2CC/C=C\C[C@@H](C2=O)N(C)C(=O)CN(C)C1=O [PP1715]
- NRAS/KRAS (ratio of KD value for NRAS to KD value for KRAS) [1]: AA (a compound having 20 or more is denoted as AA)
- HRAS/KRAS (ratio of KD value for HRAS to KD value for KRAS) [2]: A (a compound having 10 or more and less than 20 is denoted as A)
